Measured values reported in article PMC12084609, “Structural insights into small-molecule agonist recognition and activation of complement receptor C3aR” (The EMBO Journal, 2025).
Positions count from the first letter of the chain named. “And” between values parts separate entries of the source, which are not always exact repeats. Identical values can stand only once. Like-named read-outs stand apart in the source and are kept apart here.

What was measured:
[1] = molecular target: T1, C3aR L30^1.39A (Homo sapiens, UniProt Q16581, L30A); assay: GloSensor-based cAMP assay, C3aR mutant L30A; format: cell-based
T1 construct: expressed in transfected cells; host or cells: HEK293T
T1 sequence (Q16581 1-482 L30A): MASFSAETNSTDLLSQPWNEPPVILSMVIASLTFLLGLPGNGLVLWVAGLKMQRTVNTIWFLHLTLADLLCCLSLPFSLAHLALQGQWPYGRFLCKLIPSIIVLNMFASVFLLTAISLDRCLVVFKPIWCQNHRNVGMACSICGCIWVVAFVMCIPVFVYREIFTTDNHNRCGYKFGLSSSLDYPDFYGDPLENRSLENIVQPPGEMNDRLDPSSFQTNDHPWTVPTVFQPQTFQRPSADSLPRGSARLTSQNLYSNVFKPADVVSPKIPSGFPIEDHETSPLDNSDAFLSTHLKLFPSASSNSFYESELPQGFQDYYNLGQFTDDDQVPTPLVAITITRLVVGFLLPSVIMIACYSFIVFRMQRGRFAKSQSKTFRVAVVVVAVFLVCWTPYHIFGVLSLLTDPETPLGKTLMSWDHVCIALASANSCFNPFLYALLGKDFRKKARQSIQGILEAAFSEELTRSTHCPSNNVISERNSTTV
Protocol: (§1) HEK293T cells were seeded on 6-well plates (NEST) and transfected with pGlosensor™-22F plasmids (Promega) and pcDNA3.1 plasmids encoding C3aR or its mutants an with N-terminal FLAG tag. After 48 h, cells were detached with Accutase solution (Sigma-Aldrich) and washed with PBS, and resuspended in assay buffer (CO2-independent medium with 0.5 mg mL^−1D-luciferin). 100,000–200,000 cells were seeded on 96-well white bottom plates (SPL) and incubated at 37 °C for 45 min followed by 45 min incubation at room temperature. After 90 min of incubation, basal luminescence signals were recorded. In total, 25 μl of test ligand with various concentrations and 1 μM Forskolin (Sigma-Aldrich) were treated to the cells and luminescence signals were measured by Tristar 2 LB 942 multimode reader (Berthold). […] Relative luminescence unit (%) was calculated with the signal of wells treated with vehicle as 0% and the signal of wells treated with 1 μM Forskolin as 100% (DiRaddo et al, [2014]). Nonlinear regression was performed using a three-parameter logistic equation.

[2] = molecular target: T2, C3aR L82^2.64A (Homo sapiens, UniProt Q16581, L82A); assay: GloSensor-based cAMP assay, C3aR mutant L82A; format: cell-based
T2 construct: expressed in transfected cells; host or cells: HEK293T
T2 sequence (Q16581 1-482 L82A): T1 sequence (Q16581 1-482 L30A) with A30L, L82A
Protocol: as §1

[3] = molecular target: T3, C3aR H418^7.36A (Homo sapiens, UniProt Q16581, H418A); assay: GloSensor-based cAMP assay, C3aR mutant H418A; format: cell-based
T3 construct: expressed in transfected cells; host or cells: HEK293T
T3 sequence (Q16581 1-482 H418A): T1 sequence (Q16581 1-482 L30A) with A30L, H418A
Protocol: as §1

[4] = molecular target: T4, C3aR (Homo sapiens, UniProt Q16581); parameters: method as in Rowley et al, 2020; details: inhibition of C3a-induced calcium release and mast cell degranulation; ref Rowley et al, 2020; cited from earlier work
T4 sequence (Q16581 whole entry): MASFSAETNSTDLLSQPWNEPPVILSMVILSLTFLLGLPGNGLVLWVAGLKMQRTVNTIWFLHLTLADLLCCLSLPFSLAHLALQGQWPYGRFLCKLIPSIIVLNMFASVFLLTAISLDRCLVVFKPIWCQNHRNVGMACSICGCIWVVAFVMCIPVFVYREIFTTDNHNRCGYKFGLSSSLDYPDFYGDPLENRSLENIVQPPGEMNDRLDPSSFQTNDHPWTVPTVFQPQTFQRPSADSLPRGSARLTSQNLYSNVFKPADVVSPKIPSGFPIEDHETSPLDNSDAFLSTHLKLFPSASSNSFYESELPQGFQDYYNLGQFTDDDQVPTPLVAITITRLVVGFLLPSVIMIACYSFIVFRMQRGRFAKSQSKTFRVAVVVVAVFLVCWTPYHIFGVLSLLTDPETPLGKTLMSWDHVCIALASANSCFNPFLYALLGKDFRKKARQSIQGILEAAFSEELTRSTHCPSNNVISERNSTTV
T4 sequence (P63096 2-354 partner limits assumed): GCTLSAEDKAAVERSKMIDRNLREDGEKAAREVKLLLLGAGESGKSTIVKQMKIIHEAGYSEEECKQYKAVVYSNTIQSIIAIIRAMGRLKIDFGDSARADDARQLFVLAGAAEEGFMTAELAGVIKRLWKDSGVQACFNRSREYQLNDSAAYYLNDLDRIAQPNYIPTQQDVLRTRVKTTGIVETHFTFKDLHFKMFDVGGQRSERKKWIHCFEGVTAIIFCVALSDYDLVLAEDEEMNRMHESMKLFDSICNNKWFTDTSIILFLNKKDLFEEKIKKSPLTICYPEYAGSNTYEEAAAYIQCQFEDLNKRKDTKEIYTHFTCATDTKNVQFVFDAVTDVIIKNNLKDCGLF
T4 sequence (P62873 2-340 partner limits assumed): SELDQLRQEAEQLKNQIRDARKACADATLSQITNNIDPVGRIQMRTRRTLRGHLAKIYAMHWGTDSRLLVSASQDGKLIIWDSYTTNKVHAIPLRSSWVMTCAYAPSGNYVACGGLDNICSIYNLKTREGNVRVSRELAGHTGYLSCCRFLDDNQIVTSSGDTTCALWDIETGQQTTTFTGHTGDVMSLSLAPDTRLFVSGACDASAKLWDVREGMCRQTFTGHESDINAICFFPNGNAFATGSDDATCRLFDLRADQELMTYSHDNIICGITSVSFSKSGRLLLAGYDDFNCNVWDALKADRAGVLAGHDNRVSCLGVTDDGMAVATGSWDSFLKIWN
T4 sequence (P59768 2-68 partner limits assumed): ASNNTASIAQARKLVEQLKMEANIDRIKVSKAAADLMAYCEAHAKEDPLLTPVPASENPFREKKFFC

[5] = molecular target: T4, C3aR; parameters: method as in Luo et al, 2025; details: human monocyte THP-1 cells, naturally express C3aR; ref Luo et al, 2025; cited from earlier work
[6] = test system: C3aR; parameters: method as in Mathieu et al, 2005; Rodriguez et al, 2024; details: blockade of calcium influx attributed to β-arrestin mediated internalization; ref Mathieu et al, 2005; Rodriguez et al, 2024; cited from earlier work
[7] = Dunnett's multiple comparisons test, WT minus mutant

In the case of `Cc1cc(C(c2ccc(Cl)cc2)c2ccc(Cl)cc2)sc1C(=O)N[C@@H](CCCNC(=N)N)C(=O)O` [JR14a, reference compound], the “Mean Diff. of pIC50, WT vs. L30A” value [1, 7] is reported as 0.012, the IC50 ([1]; IC50, L30^1.39A, dose-response plot) is reported as 5.58 nM and the remaining activity at 1 µM ([1]; L30A, Log[JR14a (M)] -6, single replicates, read-out: cAMP response (% Forskolin)) is reported as 12.9%. It also gave a remaining activity at 0.1 µM ([1]; L30A, Log[JR14a (M)] -7, single replicates, read-out: cAMP response (% Forskolin)) of 13.4%, a remaining activity at 0.001 µM ([1]; L30A, Log[JR14a (M)] -9, single replicates, read-out: cAMP response (% Forskolin)) of 82.6% and a remaining activity at 0.0001 µM ([1]; L30A, Log[JR14a (M)] -10, single replicates, read-out: cAMP response (% Forskolin)) of 97.9%. The remaining activity at 10 pM ([1]; L30A, Log[JR14a (M)] -11, single replicates, read-out: cAMP response (% Forskolin)) was 98.1%, the “ΔpIC50 ± SE of Diff.” value ([1]; L30^1.39A relative to WT C3aR) was -0.01 ± 0.01 and the IC50 ([1]; pIC50 (Replicate), L30^1.39A, individual replicates) was 8.91 nM and 6.92 nM. For the same compound, the IC50 ([1]; pIC50 ± SEM (Mean), L30^1.39A, mean of independent experiments) was 5.37 nM, the IC50 ([1]; read-out: pIC50 (Replicate) (converted)) was 2.51 nM and the “Mean Diff. of pIC50, WT vs. L82A” value [2, 7] was -0.402. The IC50 ([2]; IC50, L82^2.64A, dose-response plot) was 2.07 nM, the remaining activity at 1 µM ([2]; L82A, Log[JR14a (M)] -6, single replicates, read-out: cAMP response (% Forskolin)) was 9.36% and the remaining activity at 0.1 µM ([2]; L82A, Log[JR14a (M)] -7, single replicates, read-out: cAMP response (% Forskolin)) was 8.92%. It also gave a remaining activity at 0.01 µM ([2]; L82A, Log[JR14a (M)] -8, single replicates, read-out: cAMP response (% Forskolin)) of 34.1%, a remaining activity at 0.001 µM ([2]; L82A, Log[JR14a (M)] -9, single replicates, read-out: cAMP response (% Forskolin)) of 62.6% and a remaining activity at 0.0001 µM ([2]; L82A, Log[JR14a (M)] -10, single replicates, read-out: cAMP response (% Forskolin)) of 93.2%. The remaining activity at 10 pM ([2]; L82A, Log[JR14a (M)] -11, single replicates, read-out: cAMP response (% Forskolin)) was 106%, the “ΔpIC50 ± SE of Diff.” value ([2]; L82^2.64A relative to WT C3aR) was 0.40 ± 0.14 and the IC50 ([2]; pIC50 (Replicate), L82^2.64A, individual replicates) was 1.55 nM and 3.39 nM and 1.66 nM. The IC50 ([2]; pIC50 ± SEM (Mean), L82^2.64A, mean of independent experiments) was 2.04 nM, the “Mean Diff. of pIC50, WT vs. H418A” value [3, 7] was -0.145 and the “ΔpIC50 ± SE of Diff.” value ([3]; H418^7.36A relative to WT C3aR) was 0.14 ± 0.08. For the same compound, the IC50 ([3]; H418^7.36A, mean of independent experiments, read-out: pIC50 ± SEM (Mean) (converted)) was 2.51 nM, the IC50 ([3]; IC50, H418^7.36A, dose-response plot) was 2.56 nM and the IC50 ([3]; pIC50 (Replicate), H418^7.36A, individual replicates) was 2.04 nM and 4.07 nM and 4.79 nM and 0.977 nM. For the same compound, the IC50 values [4] was “nanomolar range”, the “forskolin-induced cAMP production” value [5] was “inhibited forskolin-induced cAMP production in a dose-dependent manner” and the “activity at C3aR” value [6] was “potent agonist”.
